For one compound, inhibition and Activity results are on record in ChEMBL document CHEMBL5055675, “Apoptosis Inducing 1,3,4-Oxadiazole Conjugates of Capsaicin: Their In Vitro Antiproliferative and In Silico Studies” (ACS Med Chem Lett, 2021).

SMILES strings stand for the structures. Activity calls are given as the source filed them. The calls are words filed in the database; no cut-off is given here.

The test system of assay [1] is NCI-H460. In words: Inhibition of colony formation in human NCI-H460 cells assessed as reduction in colony formation incubated for 15 days and subsequent media replacement with compound for every 72 hrs by crystal violet staining based assay. The assay is classed as functional, cell-based. The conditions noted are these: dose 5-20 µM, time 15.0 day.
The subject of assay [2] is NCI-H460. The assay can be described thus: Induction of apoptosis in human NCI-H460 cells assessed as early apoptotic cells at 10 uM measured after 72 hrs by Annexin V-FITC and propidium iodide staining based flow cytometry analysis (Rvb= 6.61%). The assay is classed as functional.
For assay [3], the system named is NCI-H460. In words: Induction of apoptosis in human NCI-H460 cells assessed as decrease in pro-caspase3 expression level at 1 to 20 uM measured after 72 hrs by western blot analysis. The assay is classed as functional, cell-based. The conditions noted are these: dose 1-20 µM. In general terms: A western blot detects proteins with antibodies after separation by electrophoresis.

For assay [4], the system named is NCI-H460. The assay can be described thus: Cell cycle arrest in human NCI-H460 cells assessed as accumulation of cells in S phase at 5 uM measured after 72 hrs by propidium iodide/RNase staining based flow cytometry analysis (Rvb= 26.87%). It is filed as functional. (A flow cytometer gives signals particle by particle.)
Assay [5] concerns NCI-H460. In words: Antimigratory activity against human NCI-H460 cells assessed as inhibition of cell migration measured after 24 hrs by wound healing assay. It is filed as functional, cell-based. The conditions noted are these: dose 5-20 µM.
Assay [6] relates to NCI-H460. In words: Effect on total ERK expression in human NCI-H460 cells at 1 to 20 uM measured after 72 hrs by western blot analysis. The conditions noted are these: dose 1-20 µM. It is filed as functional, cell-based.
The subject of assay [7] is NCI-H460. In words: Cell cycle arrest in human NCI-H460 cells assessed as accumulation of cells in G2/M phase at 10 uM measured after 72 hrs by propidium iodide/RNase staining based flow cytometry analysis (Rvb= 10.22%). The assay is classed as functional.
The subject of assay [8] is NCI-H460. The assay can be described thus: Antimigratory activity against human NCI-H460 cells assessed as reduction in VEGF expression level measured after 72 hrs by western blot analysis. It is filed as functional, cell-based. The conditions noted are these: dose 1-20 µM.
In assay [9] the test system is NCI-H460. In words: Induction of apoptosis in human NCI-H460 cells assessed as early apoptotic cells at 20 uM measured after 72 hrs by Annexin V-FITC and propidium iodide staining based flow cytometry analysis (Rvb= 6.61%). It is filed as functional.
Assay [10] concerns NCI-H460. The assay can be described thus: Cell cycle arrest in human NCI-H460 cells assessed as accumulation of cells in G1 phase at 20 uM measured after 72 hrs by propidium iodide/RNase staining based flow cytometry analysis (Rvb= 62.9%). The assay is classed as functional.
The test system of assay [11] is NCI-H460. The assay can be described thus: Cell cycle arrest in human NCI-H460 cells assessed as accumulation of cells in G1 phase at 5 uM measured after 72 hrs by propidium iodide/RNase staining based flow cytometry analysis (Rvb= 62.9%). The assay is classed as functional.
The subject of assay [12] is NCI-H460. The assay can be described thus: Cell cycle arrest in human NCI-H460 cells assessed as accumulation of cells in S phase at 20 uM measured after 72 hrs by propidium iodide/RNase staining based flow cytometry analysis (Rvb= 26.87%). It is filed as functional.
For assay [13], the system named is NCI-H460. In words: Inhibition of ERK phosphorylation in human NCI-H460 cells at 20 uM measured after 72 hrs by western blot analysis. The assay is classed as cell-based.
Assay [14] deals with NCI-H460. The assay can be described thus: Cell cycle arrest in human NCI-H460 cells assessed as accumulation of cells in G1 phase at 10 uM measured after 72 hrs by propidium iodide/RNase staining based flow cytometry analysis (Rvb= 62.9%). It is filed as functional.

Take `COc1cc(CNC(=O)CCCC/C=C/C(C)C)ccc1OCc1nnc(Nc2ccc([N+](=O)[O-])cc2)o1`: the inhibition entry in the assay on NCI-H460 [1] was “Dose-dependent effect”. In addition, the Activity is 8.29% with NCI-H460 [2]; 28.16% with NCI-H460 [4]; “Dose-dependent effect” in the assay with NCI-H460 [5]; 11.81% in the assay on NCI-H460 [7]; “Dose-dependent effect” with NCI-H460 [8]; 21.15% in the assay with NCI-H460 [9]. The Activity in the assay with NCI-H460 [10] is reported as 56.45%; with NCI-H460 [11], 61.8%; in the assay on NCI-H460 [12] it was 34.83%; in the assay with NCI-H460 [14], 59.13%. The result with NCI-H460 [3] was Active. The outcome in the assay with NCI-H460 [6] was inactive. Further, the inhibition result with NCI-H460 [13] was “Active”.
